The data set is described as follows: Initial experiments on chlorthalidone API in solution. The class given is physicochemical. The note with it: without excipients; would agglomerate and cake. The source says:
Accordingly, for stabilizing the chlorthalidone in a stabilized suspension, the inventors contemplated combining the chlorthalidone with select excipients. These excipients include at least a solubilizing and/or a wetting agent, at least one suspending agent, at least one viscosity increasing agent or at least one anti-caking agent, and water. The suspension may also further include an anti-foaming agent, at least one antimicrobial, and at least one sweetening agent.

Here are results for one compound from patent US20240423954A1, “Chlorthalidone Compositions And Methods” (Nivagen Pharmaceuticals, Inc., priority 2020, published 2024).

For `NS(=O)(=O)c1cc(C2(O)NC(=O)c3ccccc32)ccc1Cl` (stereo not shown) [chlorthalidone, Chlorthalidone], the “stability of the API in solution” value is reported as “not stable in solution”.
